Reference: patent US8591892B2, “FTY720 increases CD74 expression and sensitizes cancer cells to anti-CD74 antibody-mediated cell death” (The Ohio State University, priority 2011, dated 2013)
Entries after “also recorded” stand apart in the source; their conditions may differ. Where two headings read alike, the source gives them in different places.

Assays:
[1] = test system: MCL cell lines (Jeko-1, Mino, UPN-1, Z-138); test: Immunoblot for LC3-I/LC3-II (autophagic flux); assay type: cell-based, human
Description: (§1) FIG. 1. […] Actin was used as loading control. […] Actin was used as loading control.

[2] = test system: MCL cell lines; test: Cytotoxicity of OSU-2S; assay type: cell-based
[3] = test system: CD74 in Jeko-1, Mino, UPN-1 and Z-138 cells; test: Confocal microscopy of total CD74 with rhodamine-conjugated milatuzumab; assay type: cell-based, human; conditions: Jeko-1 and Mino cells, non-immobilized, 5 μg/ml
Description: Cells were stained with an anti-CD74 antibody (FITC conjugated and CD74 MFI was measured by flow cytometry. Representative histograms summarizing the MFI of untreated and treated Jeko-1, Mino, UPN-1 and Z-138 cells are shown. (C) The amount of total cellular CD74 was determined by confocal microscopy. Jeko-1, Mino, UPN-1 and Z-138 cells were treated with FTY720 at the indicated doses, chloroquine (40 μM), rapamycin (10 μM) or the combination of FTY720 and chloroquine, for 4, 8 and 24 hours. CD74 fluorescence intensity was measured in 4 microscopic fields and integrated intensity was averaged relative to the number of cells per field (˜180-220 cells per condition).
MCL cells for confocal fluorescence microscopy were fixed and stained as previously described (Alinari et al., 2011, Blood 117:4530-41). Briefly, after exposure to drugs, cells were made adherent on a microscope slide by centrifugation. Immediately after cytospin, cells were fixed in cold acetone for two minutes. For CD74 immunofluorescence, the cells were incubated with rhodamine-conjugated milatuzumab. […] Nuclei were stained blue with DAPI (Vector laboratories, Burlingame, Calif.). […] For quantification, 4 microscopic fields per slide were analyzed. Nuclei count was performed using an edge constrained marker-controlled watershed for iterative fluorescence microscopic cell image splitting.

[4] = test system: RII isoform of PKA compared with the RI isoform; conditions: cited from earlier work
[5] = test system: MCL cell lines (Jeko-1, Mino, UPN-1, Z-138); test: Confocal microscopy of total cellular LC3; assay type: cell-based, human
[6] = test system: MCL cell lines (Jeko-1, Mino, UPN-1, Z-138); test: Immunoblot for p62; assay type: cell-based, human; conditions: UPN-1 and Z-138 cells, 24 hours
Description: as §1

[7] = test system: Jeko-1 and Mino cell lines; test: Transmission electron microscopy of ultrastructural changes; assay type: cell-based, human; conditions: Jeko and Mino cells; chloroquine 40 μM, FTY720 10 μM
Description: Monolayer cells were grown in chamber slides in medium containing chloroquine (40 μM) or FTY720 (10 μM) for 12 hours. Prior to processing, the cells were fixed for 30 min in 2.5% glutaraldehyde in 0.1 M phosphate buffer pH 7.4. […] Images were obtained with a PEI TECHNAI™ G2 Spirit Transmission Electron Microscope.
We next examined ultrastructural morphologic changes in Jeko-1 and Mino cell lines treated with FTY720 using TEM.

[8] = test system: Jeko-1 and Mino cells; test: Acridine orange staining, flow cytometry (lysosomal membrane permeability); assay type: cell-based, human; conditions: 8 hours, vs untreated control
Description: Cells were then stained with AO (1 μg/mL) for 15 minutes. The relative changes in FL1 fluorescence were assessed by flow cytometry. Representative histograms summarizing AO fluorescence intensity of MCL treated with FTY720, chloroquine, rapamycin or combinations are shown (MFI of treated cells is normalized to the untreated controls. (C) Jeko-1 and Mino cells were treated with FTY720 at the indicated concentration in the presence or absence of cathepsin inhibitor III (5 and 10 μM). Cell death was determined by annexin V/PI staining and flow cytometry at 8 hours. Data are shown as percentage of annexin V−/PI− cells (live cells).
To assess lysosomal membrane permeability, FTY720 treated cells were incubated with acridine orange (MOLECULAR PROBES; INVITROGEN).
AO at acidic pH (i.e., lysosomal) fluoresces red, however, when AO leaks into a neutral pH (i.e., cytosolic), it causes an increase in green fluorescence that can be detected by flow cytometry.

[9] = test system: surface CD74 on Jeko-1 and Mino cells; test: CD74-FITC staining and flow cytometry (CD74 MFI); assay type: cell-based, human; conditions: 8 and 24 hours, vs untreated control or rapamycin
Description: (B) CD74 MFI of MCL cells treated with FTY720, chloroquine or rapamycin at the indicated concentrations after 8 and 24 hours. […] P values are calculated comparing FTY720, chloroquine and rapamycin treatment to the untreated control.
MCL cell lines were treated with FTY720, chloroquine (SIGMA, St Louis, Mo.) or rapamycin (CALBIOCHEM, San Diego, Calif.) for 8 and 24 hours and CD74 mean fluorescence intensity (MFI) was determined relative to a specific isotype control. After treatment, cells (1×10^6) were washed in phosphate-buffered saline (PBS), stained with CD74-FITC (BD BIOSCIENCES, San Jose, Calif.) for 15 minutes at 4° C., then rinsed in PBS and analyzed by flow cytometry (EPICS-XL™; BECKMAN COULTER, Fullerton, Calif.). A total of 10,000 events were collected and analyzed using Windows Multiple Document Interface for Flow Cytometry (WinMDI, Scripps Research Institute, San Diego, Calif.).
To determine the influence of FTY720 treatment on CD74 surface levels, Jeko-1 and Mino cells were incubated with FTY720, chloroquine or rapamycin for 8 and 24 hours. CD74 MFI values were determined by CD74-FITC staining and flow cytometry.

[10] = test system: Aspc-1; test: Flow cytometry of CD74, HLA-DR, CEACAM5 with directly labeled MAbs, with and without IFN-γ; assay type: cell-based
Description: (§2) Expression of CD74, HLA-DR, and carcinoembryonic antigen (CEACAM5) was determined in untreated cells and cells exposed to 200 U of IFN-γ for 48 h by flow cytometry. Cells were stained with directly labeled MAbs in comparison to a directly labeled human IgG control. Antibodies were labeled using ALEXA FLUOR® 488 (Invitrogen, Carlsbad, Calif.). For determination of cytoplasmic antigen expression, cells were permeabilized prior to staining using the BD CYTOFIX/CYTOPERM™ kit (BD Biosciences, San Jose, Calif.).

[11] = test system: BxPC-3; test: as above; assay type: cell-based
Description: as §2

[12] = test system: CAG; test: as above; assay type: cell-based
Description: as §2

[13] = test system: Capan-1; test: as above; assay type: cell-based
Description: as §2

[14] = test system: FSCCL; test: as above; assay type: cell-based
Description: as §2

[15] = test system: HT29; test: as above; assay type: cell-based
Description: as §2

[16] = test system: KMS11; test: as above; assay type: cell-based
Description: as §2

[17] = test system: LS174T; test: as above; assay type: cell-based
Description: as §2

[18] = test system: Lovo; test: as above; assay type: cell-based
Description: as §2

[19] = test system: Moser; test: as above; assay type: cell-based
Description: as §2

[20] = test system: Panc-1; test: as above; assay type: cell-based
Description: as §2

[21] = test system: RL; test: as above; assay type: cell-based
Description: as §2

[22] = test system: TU118; test: as above; assay type: cell-based
Description: as §2

[23] = test system: U118; test: as above; assay type: cell-based
Description: as §2

[24] = test system: U87; test: as above; assay type: cell-based
Description: as §2

[25] = target: DDD of the RII form of PKA (RIIα dimers) (Homo sapiens, UniProt P13861); conditions: read-out: binding constant for DDD; cited from earlier work
DDD of the RII form of PKA (RIIα dimers), sequence (P13861 whole entry): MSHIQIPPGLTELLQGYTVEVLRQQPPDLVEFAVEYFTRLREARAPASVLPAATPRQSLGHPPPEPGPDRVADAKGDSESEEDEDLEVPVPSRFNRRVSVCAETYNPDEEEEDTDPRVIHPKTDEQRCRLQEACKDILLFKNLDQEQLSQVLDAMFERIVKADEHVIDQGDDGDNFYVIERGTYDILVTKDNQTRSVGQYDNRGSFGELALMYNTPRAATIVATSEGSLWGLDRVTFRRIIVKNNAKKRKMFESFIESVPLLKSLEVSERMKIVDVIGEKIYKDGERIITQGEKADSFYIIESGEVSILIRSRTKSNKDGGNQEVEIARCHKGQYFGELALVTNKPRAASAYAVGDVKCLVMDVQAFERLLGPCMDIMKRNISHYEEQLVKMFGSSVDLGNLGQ

CCC[C@@](N)(CO)CCc1ccc(OCCCCCC(C)C)cc1 [OSU-2S, (S)-2-amino-2-(4-[(6-methylheptyl)-oxy]phenethyl)pentan-1-ol]
LC3-II levels ([1]; Jeko-1, Mino and Z-138 cell lines, 24 hours, Western blotting): increased levels of LC3-II | cytotoxicity ([2]; MCL cell lines): exhibited cytotoxicity | cytotoxic activity ([2]; MCL cell lines and primary cells): significant cytotoxic activity

rhodamine-conjugated milatuzumab: fluorescence labeled milatuzumab made with NHS-rhodamine
internalization of CD74 [3]: rapid internalization of CD74

QIEYVAKQIVDYAIHQA [SuperAKAP-IS]
selectivity for RII over RI isoform of PKA [4]: five order of magnitude higher selectivity

CCN(CC)CCCC(C)Nc1ccnc2cc(Cl)ccc12 (stereo not drawn) [chloroquine]
LC3-II levels [1]: significant increase in LC3-II levels; also recorded: increased levels of LC3-II | LC3 fluorescence intensity [5]: statistically significant increase in LC3 fluorescence intensity | p62 levels [6]: significant increase of p62 levels | ultrastructural morphologic changes (TEM) [7]: increased accumulation of autophagosomes | acridine orange green fluorescence (FL1) [8]: slight increase of green fluorescence | CD74 MFI (surface) [9]: slight increase of CD74 MFI

Labetuzumab: anti-CEA antibody, directly labeled
% change of cell surface expression with IFNγ ([10]; Aspc-1): 26.3% | % change of cytoplasmic expression with IFNγ ([10]; Aspc-1): 53.2% | Cell surface expression (staining with directly labeled MAb) ([10]; Aspc-1 + IFNγ 200 U, 48 h): 66.8 | Cell surface expression (staining with directly labeled MAb) ([10]; Aspc-1, without IFN-γ): 52.9 | % change of cell surface expression with IFNγ ([11]; BxPC-3): 25.6% | % change of cytoplasmic expression with IFNγ ([11]; BxPC-3): 52.7% | Cell surface expression (staining with directly labeled MAb) ([11]; BxPC-3 + IFNγ 200 U, 48 h): 7.0 | Cell surface expression (staining with directly labeled MAb) ([11]; BxPC-3, without IFN-γ): 5.6 | % change of cell surface expression with IFNγ ([12]; CAG): 3.0% | % change of cytoplasmic expression with IFNγ ([12]; CAG): 27.4% | Cell surface expression (staining with directly labeled MAb) ([12]; CAG + IFNγ 200 U, 48 h): 5.2 | Cell surface expression (staining with directly labeled MAb) ([12]; CAG, without IFN-γ): 5.0 | Cell surface expression (staining with directly labeled MAb) ([13]; Capan + IFNγ 200 U, 48 h): 48.8 | % change of cell surface expression with IFNγ ([13]; Capan-1): −15.1% | % change of cytoplasmic expression with IFNγ ([13]; Capan-1): 8.7% | Cell surface expression (staining with directly labeled MAb) ([13]; Capan-1, without IFN-γ): 57.5 | % change of cell surface expression with IFNγ ([14]; FSCCL): 7.6% | % change of cytoplasmic expression with IFNγ ([14]; FSCCL): 100.7% | Cell surface expression (staining with directly labeled MAb) ([14]; FSCCL + IFNγ 200 U, 48 h): 2.8 | Cell surface expression (staining with directly labeled MAb) ([14]; FSCCL, without IFN-γ): 2.6 | % change of cell surface expression with IFNγ ([15]; HT29): 213.5% | % change of cytoplasmic expression with IFNγ ([15]; HT29): 122.7% | Cell surface expression (staining with directly labeled MAb) ([15]; HT29 + IFNγ 200 U, 48 h): 34.9 | Cell surface expression (staining with directly labeled MAb) ([15]; HT29, without IFN-γ): 11.1 | % change of cell surface expression with IFNγ ([16]; KMS11): 7.1% | % change of cytoplasmic expression with IFNγ ([16]; KMS11): −11.4% | Cell surface expression (staining with directly labeled MAb) ([16]; KMS11 + IFNγ 200 U, 48 h): 2.3 | Cell surface expression (staining with directly labeled MAb) ([16]; KMS11, without IFN-γ): 2.1 | % change of cell surface expression with IFNγ ([17]; LS174T): 167.9% | % change of cytoplasmic expression with IFNγ ([17]; LS174T): 195.9% | Cell surface expression (staining with directly labeled MAb) ([17]; LS174T + IFNγ 200 U, 48 h): 163.7 | Cell surface expression (staining with directly labeled MAb) ([17]; LS174T, without IFN-γ): 61.1 | % change of cell surface expression with IFNγ ([18]; Lovo): 48.6% | % change of cytoplasmic expression with IFNγ ([18]; Lovo): 52.4% | Cell surface expression (staining with directly labeled MAb) ([18]; Lovo + IFNγ 200 U, 48 h): 84.4 | Cell surface expression (staining with directly labeled MAb) ([18]; Lovo, without IFN-γ): 56.8 | % change of cell surface expression with IFNγ ([19]; Moser): 20.9% | % change of cytoplasmic expression with IFNγ ([19]; Moser): 41.8% | Cell surface expression (staining with directly labeled MAb) ([19]; Moser + IFNγ 200 U, 48 h): 77.2 | Cell surface expression (staining with directly labeled MAb) ([19]; Moser, without IFN-γ): 63.8 | % change of cell surface expression with IFNγ ([20]; Panc-1): 6.3% | % change of cytoplasmic expression with IFNγ ([20]; Panc-1): 161.2% | Cell surface expression (staining with directly labeled MAb) ([20]; Panc-1 + IFNγ 200 U, 48 h): 4.4 | Cell surface expression (staining with directly labeled MAb) ([20]; Panc-1, without IFN-γ): 4.1 | % change of cell surface expression with IFNγ ([21]; RL): 17.3% | % change of cytoplasmic expression with IFNγ ([21]; RL): 37.9% | Cell surface expression (staining with directly labeled MAb) ([21]; RL + IFNγ 200 U, 48 h): 2.9 | Cell surface expression (staining with directly labeled MAb) ([21]; RL, without IFN-γ): 2.4 | % change of cell surface expression with IFNγ ([22]; TU118): 13.0% | % change of cytoplasmic expression with IFNγ ([22]; TU118): 115.5% | Cell surface expression (staining with directly labeled MAb) ([22]; TU118 + IFNγ 200 U, 48 h): 5.29 | Cell surface expression (staining with directly labeled MAb) ([22]; TU118, without IFN-γ): 4.68 | % change of cell surface expression with IFNγ ([23]; U118): 2.4% | % change of cytoplasmic expression with IFNγ ([23]; U118): 78.2% | Cell surface expression (staining with directly labeled MAb) ([23]; U118 + IFNγ 200 U, 48 h): 5.6 | Cell surface expression (staining with directly labeled MAb) ([23]; U118, without IFN-γ): 5.5 | % change of cell surface expression with IFNγ ([24]; U87): 23.8% | % change of cytoplasmic expression with IFNγ ([24]; U87): 79.0% | Cell surface expression (staining with directly labeled MAb) ([24]; U87 + IFNγ 200 U, 48 h): 4.5 | Cell surface expression (staining with directly labeled MAb) ([24]; U87, without IFN-γ): 3.7

QIEYLAKQIVDNAIQQA [AKAP-IS]
Kd [25]: 0.4 nM
